# Experimental data published in ChEMBL document CHEMBL3045068, “Effect of methomyl and oxamyl soil applications on early control of nematodes and insects” (Pest Manag Sci, 2011).
# Legend:
# [1] = test system: Aphis gossypii; assay: Insecticidal activity against Aphis gossypii (cotton aphid) infested cotton assessed as mortality applied to soil after 5 days; type: functional
# [2] = test system: Myzus persicae; assay: Insecticidal activity against Myzus persicae (green peach aphid) infested tomato assessed as mortality applied through foliar spray after 5 days; type: functional
# [3] = test system: Phaseolus lunatus; assay: Phytotoxicity in Phaseolus lunatus (lima bean) root assessed as root dry weight at 1.12 kg ai/ha applied to soil under green house conditions (reference value: 0.36 +/- 0.071 g); type: organism-based; conditions: in vivo, other
# [4] = test system: Phaseolus lunatus; assay: Phytotoxicity in Phaseolus lunatus (lima bean) root assessed as root dry weight at 0.56 kg ai/ha applied to soil under green house conditions (reference value: 0.36 +/- 0.071 g); type: organism-based; conditions: in vivo, other
# [5] = test system: Gossypium hirsutum; assay: Phytotoxicity in Gossypium hirsutum (cotton) assessed as concentration required to cause foliar edge burn applied through foliar spray after 4 weeks; type: organism-based; conditions: in vivo, other, 672 h
# [6] = test system: Trichoplusia ni; assay: Insecticidal activity against Trichoplusia ni (cabbage looper) infested cabbage assessed as mortality applied to soil after 72 hr; type: functional
# [7] = test system: Meloidogyne incognita; assay: Nematicidal activity against second juvenile stage of Meloidogyne incognita (root-knot nematode) infected lima bean plant assessed as shoot dry weight at 3 kg ai/ha applied to soil measured up to 14 days post planting under green house conditions (reference value: 1.84 +/- 0.18 g); type: functional
# [8] = test system: Meloidogyne incognita; assay: Nematicidal activity against second juvenile stage of Meloidogyne incognita (root-knot nematode) infected lima bean plant assessed as root dry weight at 1 kg ai/ha applied to soil measured during planting under green house conditions (reference value: 0.5 +/- 0.052 g); type: functional
# [9] = test system: Meloidogyne incognita; assay: Nematicidal activity against second juvenile stage of Meloidogyne incognita (root-knot nematode) infected lima bean plant assessed as shoot dry weight at 4 kg ai/ha applied to soil measured up to 14 days post planting under green house conditions (reference value: 1.84 +/- 0.18 g); type: functional
# [10] = test system: Meloidogyne incognita; assay: Nematicidal activity against second juvenile stage of Meloidogyne incognita (root-knot nematode) infected pea plant assessed as plant fresh weight at 2 kg ai/ha applied to soil measured up to 7 days post planting under green house conditions (reference value: 4.3 +/- 0.56 g); type: functional
# [11] = test system: Meloidogyne incognita; assay: Nematicidal activity against second juvenile stage of Meloidogyne incognita (root-knot nematode) infected pea plant assessed as root dry weight at 4 kg ai/ha applied to soil measured up to 14 days post planting under green house conditions (reference value: 0.25 +/- 0.041 g); type: functional
# [12] = test system: Meloidogyne incognita; assay: Nematicidal activity against second juvenile stage of Meloidogyne incognita (root-knot nematode) infected pea plant assessed as emergence at 4 kg ai/ha applied to soil measured up to 14 days post planting under green house conditions (reference value: 75 +/- 13%); type: functional
# [13] = test system: Meloidogyne incognita; assay: Nematicidal activity against second juvenile stage of Meloidogyne incognita (root-knot nematode) infected pea plant assessed as plant emergence at 3 kg ai/ha applied to soil measured up to 7 days post planting under green house conditions (reference value: 75 +/- 13%); type: functional
# [14] = test system: Meloidogyne incognita; assay: Nematicidal activity against second juvenile stage of Meloidogyne incognita (root-knot nematode) assessed as mortality after 48 hr; type: functional
# [15] = test system: Meloidogyne incognita; assay: Nematicidal activity against second juvenile stage of Meloidogyne incognita (root-knot nematode) infected pea plant assessed as reduction in root gall index at 3 kg ai/ha applied to soil measured up to 14 days post planting under green house conditions (reference value: 9.7 +/- 0.30%); type: functional
# [16] = test system: Meloidogyne incognita; assay: Nematicidal activity against second juvenile stage of Meloidogyne incognita (root-knot nematode) infected pea plant assessed as root fresh weight at 4 kg ai/ha applied to soil measured up to 7 days post planting under green house conditions (reference value: 1.83 +/- 0.3 g); type: functional
# [17] = test system: Phaseolus lunatus; assay: Phytotoxicity in Phaseolus lunatus (lima bean) plant assessed as plant dry weight at 2.12 kg ai/ha applied to soil measured up to 7 days under green house conditions (reference value: 1.20 +/- 0.21 g); type: organism-based; conditions: in vivo, other, 168 h
# [18] = test system: Phaseolus lunatus; assay: Phytotoxicity in Phaseolus lunatus (lima bean) plant assessed as emergence at 3.12 kg ai/ha applied to soil measured up to 14 days under green house conditions (reference value: 70 +/- 16%); type: organism-based; conditions: in vivo, other, 336 h
# [19] = test system: Phaseolus lunatus; assay: Phytotoxicity in Phaseolus lunatus (lima bean) plant assessed as emergence at 1.56 kg ai/ha applied to soil measured up to 7 days under green house conditions (reference value: 70 +/- 16%); type: organism-based; conditions: in vivo, other, 168 h
# [20] = test system: Pisum sativum; assay: Phytotoxicity in Pisum sativum (pea) assessed as root dry weight at 3 kg ai/ha applied to soil measured up to 7 days post planting at 19 degC (reference value: 2 +/- 0.21 g); type: organism-based; conditions: lathyrus oleraceus, in vivo, other, 168 h
# [21] = test system: Pisum sativum; assay: Phytotoxicity in Pisum sativum (pea) assessed as root dry weight at 4 kg ai/ha applied to soil measured up to 7 days post planting at 27 degC under green house conditions (reference value: 0.33 +/- 0.075 g); type: organism-based; conditions: lathyrus oleraceus, in vivo, other, 168 h
# [22] = test system: Pisum sativum; assay: Phytotoxicity in Pisum sativum (pea) assessed as plant fresh weight at 2 kg ai/ha applied to soil measured up to 7 days post planting at 27 degC under green house conditions (reference value: 3.9 +/- 0.83 g); type: organism-based; conditions: lathyrus oleraceus, in vivo, other, 168 h
# [23] = test system: Pisum sativum; assay: Phytotoxicity in Pisum sativum (pea) assessed as plant height at 3 kg ai/ha applied to soil measured up to 7 days post planting at 19 degC (reference value: 6.2 +/- 0.6 cm); type: organism-based; conditions: lathyrus oleraceus, in vivo, other, 168 h
# [24] = test system: Pisum sativum; assay: Phytotoxicity in Pisum sativum (pea) assessed as plant height at 2 kg ai/ha applied to soil measured up to 7 days post planting at 19 degC (reference value: 6.2 +/- 0.6 cm); type: organism-based; conditions: lathyrus oleraceus, in vivo, other, 168 h
# [25] = test system: Pisum sativum; assay: Phytotoxicity in Pisum sativum (pea) assessed as plant height at 4 kg ai/ha applied to soil measured up to 7 days post planting at 27 degC under green house conditions (reference value: 9.6 +/- 1.5 cm); type: organism-based; conditions: lathyrus oleraceus, in vivo, other, 168 h
# [26] = test system: Pisum sativum; assay: Phytotoxicity in Pisum sativum (pea) assessed as emergence at 4 kg ai/ha applied to soil measured up to 7 days post planting at 27 degC under green house conditions (reference value: 70 +/- 3.3%); type: organism-based; conditions: lathyrus oleraceus, in vivo, other, 168 h
# [27] = test system: Pisum sativum; assay: Phytotoxicity in Pisum sativum (pea) assessed as emergence at 3 kg ai/ha applied to soil measured up to 7 days post planting at 27 degC under green house conditions (reference value: 70 +/- 3.3%); type: organism-based; conditions: lathyrus oleraceus, in vivo, other, 168 h
# [28] = test system: Meloidogyne incognita; assay: Nematicidal activity against second juvenile stage of Meloidogyne incognita (root-knot nematode) infected lima bean plant assessed as root dry weight at 4 kg ai/ha applied to soil measured up to 14 days post planting under green house conditions (reference value: 0.5 +/- 0.052 g); type: functional
# [29] = test system: Meloidogyne incognita; assay: Nematicidal activity against second juvenile stage of Meloidogyne incognita (root-knot nematode) infected lima bean plant assessed as root dry weight at 3 kg ai/ha applied to soil measured up to 7 days post planting under green house conditions (reference value: 0.5 +/- 0.052 g); type: functional
# [30] = test system: Meloidogyne incognita; assay: Nematicidal activity against second juvenile stage of Meloidogyne incognita (root-knot nematode) infected lima bean plant assessed as reduction in root gall index at 2 kg ai/ha applied to soil measured up to 7 days post planting under green house conditions (reference value: 7 +/- 0.27%); type: functional
smiles,measurement,setting,value
CNC(=O)ON=C(C)SC [METHOMYL],LC90,[1],11 µg/mL
same,LC50,"[1]; Aphis gossypii, soil, 120 h",5 µg/mL
same,LC90,[2],44 µg/mL
same,LC50,"[2]; Myzus persicae, foliar, 120 h",9 µg/mL
same,Activity,[3],0.35 g
same,Activity,[4],0.35 g
same,Activity,[5],500 µg/mL
same,LC90,[6],547 µg/mL
same,LC50,"[6]; Trichoplusia ni, soil, 72 h",100 µg/mL
same,Activity,[7],1.55 g
same,Activity,[8],0.44 g
same,Activity,[9],1.02 g
same,Activity,[10],7.1 g
same,Activity,[11],0.31 g
same,Activity,[12],38%
same,Activity,[13],13%
same,LC90,[14],15.2 µg/mL
same,LC50,"[14]; Meloidogyne incognita, Juvenile stage, 48 h",4.9 µg/mL
same,Root_galling_index,[15],0%
same,Activity,[16],1.59 g
same,Activity,[17],0.66 g
same,Activity,[18],60%
same,Activity,[19],80%
same,Activity,[20],2.2 g
same,Activity,[21],0.28 g
same,Activity,[22],3 g
same,Activity,[23],6.9 cm
same,Activity,[24],7.3 cm
same,Activity,[25],9.1 cm
same,Activity,[26],60%
same,Activity,[27],70%
same,Activity,[28],0.27 g
same,Activity,[29],0.39 g
same,Root_galling_index,[30],0%
